From ChEMBL document CHEMBL1201862, “PubChem BioAssay data set” (2004)
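Values below derive from 48-hour exposures of cells grown in 96-well plates, with endpoints linearly interpolated between the two concentrations bracketing the appropriate inhibition level. Abbreviation: GI50, concentration required for 50% inhibition of growth.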 Calls of active or inactive are those of the source. No stated cut-off is given here; in the data, active = GI50 up to about 1.1 µM and inactive = higher.

Assays:
Test in all cases: NCI tumour cell line growth inhibition, 48 h
[1] = tested on: RXF 393
[2] = tested on: HOP-18
[3] = tested on: RPMI-8226
[4] = tested on: K562
[5] = tested on: SF-295
[6] = tested on: SNB-19
[7] = tested on: EKVX
[8] = tested on: SW-620
[9] = tested on: UACC-62
[10] = tested on: ACHN
[11] = tested on: HCT-116
[12] = tested on: DLD-1
[13] = tested on: OVCAR-4
[14] = tested on: NCI-H522
[15] = tested on: HL-60
[16] = tested on: NCI-H460
[17] = tested on: OVCAR-3
[18] = tested on: M19-MEL
[19] = tested on: KM12
[20] = tested on: LXFL 529
[21] = tested on: NCI-H226
[22] = tested on: CCRF-CEM
[23] = tested on: M14
[24] = tested on: LOX IMVI
[25] = tested on: IGROV-1
[26] = tested on: HCC 2998
[27] = tested on: SK-MEL-5
[28] = tested on: OVCAR-5
[29] = tested on: UACC-257
[30] = tested on: SF-539
[31] = tested on: HT-29
[32] = tested on: U-251
[33] = tested on: SK-OV-3
[34] = tested on: Malme-3M
[35] = tested on: RXF 631
[36] = tested on: NCI-H23
[37] = tested on: TK-10
[38] = tested on: A549
[39] = tested on: HOP-92
[40] = tested on: MOLT-4
[41] = tested on: SN12C
[42] = tested on: SK-MEL-28
[43] = tested on: OVCAR-8
[44] = tested on: SK-MEL-2
[45] = tested on: SNB-78
[46] = tested on: UO-31
[47] = tested on: 786-0
[48] = tested on: DMS-114
[49] = tested on: CAKI-1
[50] = tested on: SF-268
[51] = tested on: XF498
[52] = tested on: HOP-62
[53] = tested on: SNB-75
[54] = tested on: COLO 205
[55] = tested on: DMS-273
[56] = tested on: KM-20L2
[57] = tested on: A498
[58] = tested on: HCT-15

CCOC(=O)C(=O)Nc1ccccc1CC
GI50 [1]: > 100 µM (inactive) | GI50 [2]: > 100 µM (inactive) | GI50 [3]: > 100 µM (inactive) | GI50 [4]: > 100 µM (inactive) | GI50 [5]: > 100 µM (inactive) | GI50 [6]: > 100 µM (inactive) | GI50 [7]: > 100 µM (inactive) | GI50 [8]: > 100 µM (inactive) | GI50 [9]: > 100 µM (inactive) | GI50 [10]: > 100 µM (inactive) | GI50 [11]: > 100 µM (inactive) | GI50 [12]: > 100 µM (inactive) | GI50 [13]: > 100 µM (inactive) | GI50 [14]: > 100 µM (inactive) | GI50 [15]: > 100 µM (inactive) | GI50 [16]: > 100 µM (inactive) | GI50 [17]: > 100 µM (inactive) | GI50 [18]: > 100 µM (inactive) | GI50 [19]: > 100 µM (inactive) | GI50 [20]: > 100 µM (inactive) | GI50 [21]: > 100 µM (inactive) | GI50 [22]: > 100 µM (inactive) | GI50 [23]: > 100 µM (inactive) | GI50 [24]: > 100 µM (inactive) | GI50 [25]: > 100 µM (inactive) | GI50 [26]: > 100 µM (inactive) | GI50 [27]: > 100 µM (inactive) | GI50 [28]: > 100 µM (inactive) | GI50 [29]: > 100 µM (inactive) | GI50 [30]: > 100 µM (inactive) | GI50 [31]: > 100 µM (inactive) | GI50 [32]: > 100 µM (inactive) | GI50 [33]: > 100 µM (inactive) | GI50 [34]: > 100 µM (inactive) | GI50 [35]: > 100 µM (inactive) | GI50 [36]: > 100 µM (inactive) | GI50 [37]: > 100 µM (inactive) | GI50 [38]: > 100 µM (inactive) | GI50 [39]: > 100 µM (inactive) | GI50 [40]: > 100 µM (inactive) | GI50 [41]: > 100 µM (inactive) | GI50 [42]: > 100 µM (inactive) | GI50 [43]: > 100 µM (inactive) | GI50 [44]: > 100 µM (inactive) | GI50 [45]: > 10 µM (inactive) | GI50 [46]: > 100 µM (inactive) | GI50 [47]: > 100 µM (inactive) | GI50 [48]: > 100 µM (inactive) | GI50 [49]: > 100 µM (inactive) | GI50 [50]: > 100 µM (inactive) | GI50 [51]: > 100 µM (inactive) | GI50 [52]: > 100 µM (inactive)

O=C(Nc1ccc(Cl)cc1C(=O)O)c1ccc([N+](=O)[O-])cc1
GI50 [53]: 45.4 µM (inactive) | GI50 [3]: 26.5 µM (inactive) | GI50 [4]: 20.8 µM (inactive) | GI50 [5]: 23.7 µM (inactive) | GI50 [6]: 14.5 µM (inactive) | GI50 [54]: 18.7 µM (inactive) | GI50 [7]: 29.5 µM (inactive) | GI50 [8]: 29.7 µM (inactive) | GI50 [9]: 14.5 µM (inactive) | GI50 [10]: 17.1 µM (inactive) | GI50 [11]: 12.2 µM (inactive) | GI50 [12]: 7.06 µM (inactive) | GI50 [55]: 27.7 µM (inactive) | GI50 [13]: 18.6 µM (inactive) | GI50 [15]: 22.4 µM (inactive) | GI50 [56]: 21.8 µM (inactive) | GI50 [16]: 18.5 µM (inactive) | GI50 [17]: 22.4 µM (inactive) | GI50 [18]: 21.4 µM (inactive) | GI50 [19]: 18.4 µM (inactive) | GI50 [20]: 15.5 µM (inactive) | GI50 [21]: 11.2 µM (inactive) | GI50 [57]: 9.77 µM (inactive) | GI50 [22]: 20.2 µM (inactive) | GI50 [23]: 24.3 µM (inactive) | GI50 [24]: 19.9 µM (inactive) | GI50 [25]: 17.4 µM (inactive) | GI50 [26]: 11.2 µM (inactive) | GI50 [27]: 20.3 µM (inactive) | GI50 [28]: 22.5 µM (inactive) | GI50 [58]: 16.7 µM | GI50 [29]: 18.6 µM (inactive) | GI50 [30]: 14.5 µM (inactive) | GI50 [31]: 18.9 µM (inactive) | GI50 [32]: 18.8 µM (inactive) | GI50 [33]: 18.2 µM (inactive) | GI50 [34]: 4.95 µM (inactive) | GI50 [35]: 30.1 µM (inactive) | GI50 [37]: 31.4 µM (inactive) | GI50 [38]: 33.7 µM (inactive) | GI50 [39]: 8.18 µM (inactive) | GI50 [40]: 22.4 µM (inactive) | GI50 [41]: 37.2 µM (inactive) | GI50 [42]: 28.2 µM (inactive) | GI50 [43]: 26.7 µM (inactive) | GI50 [44]: 3.72 µM (inactive) | GI50 [45]: 22.4 µM (inactive) | GI50 [46]: 19 µM (inactive) | GI50 [47]: 13.4 µM (inactive) | GI50 [48]: 9.08 µM (inactive) | GI50 [50]: 20.2 µM (inactive) | GI50 [51]: 24.9 µM (inactive) | GI50 [52]: 10.2 µM (inactive)
